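Cells were grown in 96-well plates and exposed to each compound for 48 hours at five concentrations; endpoints were interpolated linearly between bracketing concentrations, or set to the highest concentration if not reached. Abbreviation: GI50, concentration required for 50% inhibition of growth.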 Active and inactive are the calls of the source. Rule as the data show it: active = GI50 up to about 1.1 µM and inactive = higher.
Legend:
Assay in all cases: inhibition of tumour cell growth, NCI panel, 48 h
[1] = system: 786-0
[2] = system: A498
[3] = system: A549
[4] = system: ACHN
[5] = system: BT-549
[6] = system: CAKI-1
[7] = system: CCRF-CEM
[8] = system: COLO 205
[9] = system: DU-145
[10] = system: HCC 2998
[11] = system: HCT-116
[12] = system: HCT-15
[13] = system: HL-60
[14] = system: HOP-62
[15] = system: HOP-92
[16] = system: HT-29
[17] = system: Hs-578T
[18] = system: IGROV-1
[19] = system: K562
[20] = system: KM12
[21] = system: LOX IMVI
[22] = system: M14
[23] = system: MCF7
[24] = system: MDA-MB-435
[25] = system: MDA-N
[26] = system: MOLT-4
[27] = system: Malme-3M
[28] = system: NCI-H23
[29] = system: NCI-H460
[30] = system: NCI/ADR-RES
[31] = system: OVCAR-3
[32] = system: OVCAR-4
[33] = system: OVCAR-5
[34] = system: PC-3
[35] = system: RPMI-8226
[36] = system: RXF 393
[37] = system: SF-268
[38] = system: SF-295
[39] = system: SF-539
[40] = system: SK-MEL-28
[41] = system: SK-MEL-2
[42] = system: SK-MEL-5
[43] = system: SK-OV-3
[44] = system: SN12C
[45] = system: SNB-19
[46] = system: SNB-75
[47] = system: SR
[48] = system: SW-620
[49] = system: T47D
[50] = system: TK-10
[51] = system: U-251
[52] = system: UACC-257
[53] = system: UACC-62
[54] = system: UO-31
[55] = system: EKVX
[56] = system: MDA-MB-231
[57] = system: NCI-H226
[58] = system: NCI-H522
[59] = system: OVCAR-8

Measured: GI50

CCCCCCCCCC1(N=[N+]=[N-])C(=O)c2ccccc2N(C)C1=O (stereo not drawn)
inactive: [1] 38.5 µM | [2] 20.8 µM | [3] 25.5 µM | [4] 32.3 µM | [5] 28.1 µM | [6] 34.4 µM | [7] 16.8 µM | [8] 32 µM | [9] 28.7 µM | [10] 33 µM | [11] 21.1 µM | [13] > 100 µM | [14] 35.8 µM | [15] 20.2 µM | [16] 30.4 µM | [17] 24.3 µM | [18] 27.2 µM | [19] 19.8 µM | [20] 48 µM | [21] 15.3 µM | [22] 27 µM | [23] 29.9 µM | [24] 2.58 µM | [25] 30.7 µM | [26] 7.13 µM | [27] 28.1 µM | [28] 25.6 µM | [29] 37.2 µM | [30] 26.7 µM | [31] 25 µM | [32] 67.1 µM | [33] 31.9 µM | [34] 19.4 µM | [35] 39.9 µM | [36] 22.6 µM | [37] 40 µM | [38] 42.2 µM | [39] 70 µM | [40] 28.8 µM | [41] 25.4 µM | [42] 13 µM | [43] 25.1 µM | [44] 26.1 µM | [45] 54.7 µM | [46] 29.9 µM | [47] 35.4 µM | [48] 19.3 µM | [49] 3.4 µM | [50] 32.3 µM | [51] 2.22 µM | [52] 32.9 µM | [53] 17.3 µM | [54] 19.4 µM
30.3 µM: [12]

CC(OC(C)(C)C)[C@H](NC(=O)OC(C)(C)C)C(=O)O (stereo partly drawn)
inactive: [1] > 100 µM | [2] > 100 µM | [3] > 100 µM | [4] > 100 µM | [5] > 100 µM | [6] > 100 µM | [7] > 100 µM | [8] > 100 µM | [9] > 100 µM | [55] > 100 µM | [10] > 100 µM | [11] > 100 µM | [13] > 100 µM | [14] > 100 µM | [15] > 100 µM | [16] > 100 µM | [17] > 100 µM | [18] > 100 µM | [19] > 100 µM | [20] > 100 µM | [21] > 100 µM | [22] > 100 µM | [23] > 100 µM | [56] > 100 µM | [24] > 100 µM | [26] > 100 µM | [27] > 100 µM | [57] > 100 µM | [28] > 100 µM | [29] > 100 µM | [58] > 100 µM | [30] > 100 µM | [31] > 100 µM | [32] > 100 µM | [33] > 100 µM | [59] > 100 µM | [34] > 100 µM | [35] > 100 µM | [36] > 10 µM | [37] > 100 µM | [38] > 100 µM | [39] > 100 µM | [40] > 10 µM | [42] > 100 µM | [43] > 100 µM | [44] > 100 µM | [45] > 100 µM | [47] > 100 µM | [48] > 100 µM | [49] > 100 µM | [50] > 100 µM | [51] > 100 µM | [52] > 100 µM | [53] > 100 µM | [54] > 100 µM
> 100 µM: [12]

O=C(/C=C/c1ccc(Cl)cc1)c1ccccc(=O)c1O
inactive: [1] 1.18 µM | [2] 2.84 µM | [3] 1.41 µM | [5] 2.3 µM | [8] 1.23 µM | [9] 2.61 µM | [55] 1.93 µM | [14] 2.65 µM | [15] 3.54 µM | [16] 2.58 µM | [17] 4.99 µM | [18] 1.82 µM | [19] 1.17 µM | [20] 1.53 µM | [21] 1.29 µM | [22] 2.87 µM | [23] 2.43 µM | [56] 1.44 µM | [27] 1.33 µM | [57] 1.41 µM | [28] 2.71 µM | [58] 5.42 µM | [31] 3.64 µM | [33] 6.34 µM | [34] 4.08 µM | [36] 2.81 µM | [37] 3.12 µM | [38] 1.22 µM | [39] 2.32 µM | [40] 3.43 µM | [41] 1.75 µM | [43] 3.56 µM | [45] 2.72 µM | [46] 2.86 µM | [48] 4.38 µM | [49] 4.36 µM | [50] 4.55 µM | [51] 2.26 µM | [52] 2.49 µM | [53] 1.14 µM | [54] 1.51 µM
0.341 µM: [12]
active: [4] 0.881 µM | [6] 0.614 µM | [7] 0.255 µM | [10] 0.579 µM | [11] 0.957 µM | [13] 0.516 µM | [24] 0.977 µM | [26] 0.798 µM | [29] 0.461 µM | [30] 0.36 µM | [32] 0.673 µM | [59] 0.698 µM | [35] 1.07 µM | [42] 0.621 µM | [44] 0.643 µM | [47] 0.238 µM

— ChEMBL document CHEMBL1201862, “PubChem BioAssay data set” (2004)
